“Also recorded” adds a separate entry of the source.

Experimental findings from patent publication US20250295619A1, “Use of Salvianolic Acid E in the Preparation of Drugs Targeting Senescent Cells, Inhibiting Tumors or Extending Lifespan” (Shanghai Institute of Nutrition and Health, Chinese Academy …, priority 2024, published 2025) are described below.

One experiment concerns SASP factors. In words: RNA-seq and GSEA expression profile of BLEO-induced senescent PSC27 cells. Type of experiment: cell-based, human. The procedure:
(§1) To cause cell damage, 50 μg/mL bleomycin (bleomycin, BLEO) was added to the culture medium when PSC27 cells grew to 80% (abbreviated as PSC27-CTRL). After 12 hours of drug treatment, the cells were simply washed 3 times with PBS, left in the culture medium for 7-10 days, and then the subsequent experiments were performed.
Whole-transcriptome sequencing was performed on the primary human prostate stromal cell line PSC27 under different treatment conditions. Total RNA samples were obtained from stromal cells. Their integrity was verified by Bioanalyzer 2100 (Agilent), RNA was sequenced by Illumina HiSeq X10, and gene expression levels were quantified by software package rsem (https://deweylab. github.io/rsem/). Briefly, rRNA was depleted from RNA samples with the RiboMinus Eukaryote Kit (Qiagen, Valencia, CA, USA); and according to the manufacturer's instructions, TruSeq Stranded Total RNA Preparation Kits (Illumina, San Diego, CA, USA) was used to construct a strand-specific RNA-seq library before deep sequencing.
Paired-end transcriptomic reads were mapped to a reference genome (GRCh38/hg38), and reference-annotation was performed from Gencode v27 using the Bowtie tool. Duplicate reads were identified using the picard Tools (1.98) script to mark duplicates (https://github. com/broadinstitute/picard), and only non-duplicate reads were retained. Reference splice junctions were provided by reference transcriptome (Ensembl Build 73). FPKM values were calculated with Cufflinks, and Cufflinks maximum likelihood estimation function was used to call differential gene expression. […]
Based on the data obtained from the preliminary analysis of RNA-seq, after analyzing and comparing each differentially expressed significant gene, the genes were sorted using the “wald statistics” obtained from DESeq2. […] DESeq2 independent filtering was based on the average of normalized read counts to select genes with very low expression levels. […]

Experiment [1] has as its system senescent cells in tumor tissue. As to the kind of experiment: SA-β-Gal staining of tumor tissues of PC3/PSC27 tumor-bearing mice. Type of experiment: in vivo, mouse. To be noted: SAE with MIT. The procedure: Representative pictures after SA-β-Gal staining. Scale bar, 100 μm.
In a preclinical treatment trial, subcutaneously transplanted mice were fed with a standard experimental diet, after 2 weeks chemotherapy drugs mitoxantrone (MIT, dose: 0.2 mg/kg) and/or SAE (500 μl, dose: 10 mg/kg) via intraperitoneal administration. The time points were: the former was administrated on the first day of the 3rd, 5th and 7th weeks, and the latter was administrated on the first day of the 5th and 7th weeks. A total of 3 cycles of MIT administration were carried out throughout the course of treatment, and each cycle lasted for 2 weeks. After the course of treatment, mouse tumors were harvested for volume measurement and histological analysis. Each mouse cumulatively received 0.6 mg/kg body weight of MIT and 30 mg/kg body weight of SAE. In order to cause systemic expression of SASP factors induced by chemotherapy, MIT was administered to mice through intravenous infusion according to the above steps and sequence, but the dose was reduced to 0.1 mg/kg body weight/each time (the cumulative dose of MIT received in the whole course of treatment was 0.3 mg/kg body weight) to reduce drug-related toxicity. The chemotherapy experiment ended at the end of the 8th week, and the mice were dissected immediately after sacrifice, and the xenograft tumors were collected and used for pathological system analysis.

In a further experiment the test system is PSC27. As to the kind of experiment: CCK8 survival of proliferating and senescent PSC27 cells. Type of experiment: cell-based, human. The procedure: as §1
Pharmacodynamic analysis was conducted on an organic chemical drug library (TOPSCIENCE) with a total of 1470 small molecule compounds, mostly derived from medicinal plants and had anti-senescence potential. Each product was diluted to a 96-well plate according to a certain concentration gradient, and the density was 5000 cells per well. The medium uses DMEM, and the working concentration of natural product (or compound) is generally controlled at […] to 1 mM. After 3-7 days of drug treatment, cell proliferation was measured with CCK-8 Cell Counting Kit (based on WST-8 principle, Vazyme), and cell apoptosis activity was determined with Caspase 3/7 Activity Kit (Promega).

A further experiment has as its system SASP. As to the kind of experiment: qRT-PCR of typical SASP molecules in BLEO-induced senescent PSC27 cells at different SAE concentrations. It is filed as cell-based, human. The procedure:
All data are normalized results compared to the CTRL group. *P<0.05, **P<0.01, ***P<0.001.
as §1
Total RNA of cells in the growth phase or stasis phase was extracted with Trizol reagent. 1 mL Trizol was added to each T25 culture flask. The cell layer was scraped off with a cell scraper, transferred into a centrifuge tube and mixed well until not viscous. […]
Samples were loaded according to the above standard, and the reaction conditions were: 95° C. pre-denaturation for 15 seconds, then 95° C. for 5 seconds, 60° C. for 31 seconds, 40 cycles; melting curve conditions were 95° C. for 15 seconds, 60° C. for 30 seconds, 95° C. for 15 seconds. […] After the reaction was completed, the amplification of each gene was checked by software analysis, the corresponding threshold cycle number was derived, and the relative expression of each gene was calculated using the 2-ΔΔCt method. The peak and waveform of the melting curve was analyzed to determine whether the obtained amplification product was a specific single target fragment.

`O=C(/C=C/c1ccc(O)c(O)c1/C(=C\c1ccc(O)c(O)c1)C(=O)O[C@H](Cc1ccc(O)c(O)c1)C(=O)O)O[C@H](Cc1ccc(O)c(O)c1)C(=O)O` [SAE, salvianolic acid E]: the “expression of SASP factors in senescent cells after SAE treatment” value in the experiment with SASP factors (BLEO-induced senescent PSC27) is recorded as “universally reduced; also recorded: generally decreased”. The “molecular signatures characterizing SASP expression or NF-κB activation (GSEA)” value with SASP factors (BLEO-induced senescent PSC27 after SAE) is recorded as “significant repression”. Further, the “expression profile of senescent cells” value with SASP factors (RNA-seq, BLEO-induced senescent PSC27) was “significantly altered”. The “senescent cells in the lesions of animals treated with chemotherapeutic drugs after SAE administration” value in experiment [1] is recorded as “essentially depleted most senescent cells”. For the same compound, the “percentage of surviving senescent cells” value in the experiment on PSC27 (SAE 2000 μM) was “approximately 10%”. For the same compound, the “survival of proliferating cells” value in the experiment on PSC27 (SAE 3000 μM) is listed as “not significantly reduced”. Further, the “concentration from which significant death of senescent cells is induced” value with PSC27 (vs control proliferating cells) was found to be 200 µM. Moreover, the “inhibition of SASP development at lower or higher concentrations” value in the experiment on SASP (compared with 50 μM) is “less effective”. Also, the “working concentration that inhibited SASP development with the greatest efficiency” value in the experiment with SASP (concentration gradient, senescent PSC27) is 50 µM.
